Assay [1] has as its system HDM allergen-specific CD4 T cells. Description: Ex vivo human T cell proliferation assay, PBMC of allergic donors cultured with house dust mite extracts (3H-thymidine incorporation). Type of assay: cell-based. Particulars: PBMC from HDM-allergic donors, 7 days culture, titrated doses of LHVS; all four donors tested. On the procedure:
(§1) Reagents. Glycerinated crude allergen extracts of house dust mites (Dermataphagoides pteronyssinus, Dermataphagoides farinae) and ragweed [Ambrosia trifida (giant), Ambrosia artemisiifolia (short)] were purchased from Hollister-Stier Laboratories (Minneapolis, Minn.). Concanavalin A (ConA) was purchased from Calbiochem (La Jolla, Calif.).
(§2) Donors. All allergic donors were prescreened for their specific allergies using RAST tests. The HLA class II haplotypes of these donors were determined using PCR.
(§3) Cell culture. Human peripheral blood mononuclear cells (PBMC) were purified from blood of allergic donors using Ficoll-Hypaque gradient followed by washes with phosphate buffered saline (PBS). PBMC were cultured in triplicate or duplicate at 0.5-1.0×10^6 cells/well with titrated doses of allergen extracts, in the presence or absence of a known cathepsin S inhibitor, LHVS (morpholinurea-leucine-homo-phenylalanine-vinylsulfonephenyl) (Palmer et al. (1995), J. Med. Chem. 38:3193 and Riese et al. (1996), Immunity 4:357). Serial diluted stock solutions of LHVS were first made in 100% DMSO and then diluted 1:15 in 40% Hydroxypropynyl cyclodextrin (HPCD). Three microliters of LHVS in HPCD was added into PBMC cultures (200 μL/well). […] Eighteen hours later, cells were harvested using a Filtermate Harvester (Packard) and counted for ^3H-TdR incorporation on Topcount (Packard). […]
A general note: Incorporation of labelled thymidine or its analogues reports DNA synthesis.

Assay [2] concerns cathepsin S (degradation of invariant chain Ii). The experiment in a line: Monitoring cathepsin S inhibition in human blood: p10Ii fragment of invariant chain in PBMC by Western blot. It counts as cell-based. Particulars: PBMC from human blood, incubation for 24 h, SDS-PAGE / Western blot. The procedure:
The effect of in vivo administration of cathepsin S inhibitors, in a clinical trial setting, can be monitored by measuring accumulation of an intermediate degradation product of invariant chain (Ii), i.e. the p10Ii fragment, in blood of dosed subjects. After administration of a cathepsin inhibitor for a certain period of time, for example, 0.01 to 50 mg/kg/day to result in a blood concentration of preferably 1 nM-10 μM for 16-30 h, blood is drawn and white blood cells are purified, e.g. either by lysis of red blood cells or by a Ficoll-Hypaque gradient centrifugation. Whole cell lysates of WBC are then made and analyzed by either a Western blot assay or an ELISA assay. For the Western blot assay, cell lysates are first resolved on SDS-PAGE gels. After transferring to nitrocellulose membranes, Ii and its intermediate degradation products, including the p10Ii, can be detected using a mouse mAb against Ii, e.g. Pin1.1, or rabbit polyclonal antibodies or a mouse monoclonal antibody specific for the p10Ii fragment or against the entire p10Ii fragment. For ELISA assay, a pair of antibodies against Ii, including Pin1.1, and a rabbit polyclonal antibody against C-terminal of p10Ii, can be used. The same assay can also be applied to monitor the effect of cathepsin S inhibitors in vivo in animal studies, for example in monkeys, dogs, pigs, rabbits, guinea pigs, and rodents. […]
Background: A western blot detects proteins with antibodies after separation by electrophoresis.

Assay [3] concerns ragweed allergen-specific CD4 T cells. The experiment in a line: Ex vivo human T cell proliferation assay, PBMC of allergic donors cultured with ragweed extracts (3H-thymidine incorporation). It counts as cell-based. Particulars: PBMC from ragweed-allergic donors, 7 days culture, titrated doses of LHVS; two donors tested. The procedure:
as §1, §2, §3

Assay [4] deals with T cells stimulated with ConA, a pan-T cell mitogen. Description: T cell proliferative responses induced by ConA (specificity control). Particulars: PBMC from allergic donors. It counts as cell-based, human.
Excerpt: as §1
Cell culture. Human peripheral blood mononuclear cells (PBMC) were purified from blood of allergic donors using Ficoll-Hypaque gradient followed by washes with phosphate buffered saline (PBS). PBMC were cultured in triplicate or duplicate at 0.5-1.0×10^6 cells/well with titrated doses of allergen extracts, in the presence or absence of a known cathepsin S inhibitor, LHVS (morpholinurea-leucine-homo-phenylalanine-vinylsulfonephenyl) (Palmer et al. (1995), J. Med. Chem. 38:3193 and Riese et al. (1996), Immunity 4:357). Serial diluted stock solutions of LHVS were first made in 100% DMSO and then diluted 1:15 in 40% Hydroxypropynyl cyclodextrin (HPCD). Three microliters of LHVS in HPCD was added into PBMC cultures (200 μL/well). After 6 days of culture, 1 μCi/well of ^3H-thymidine (TdR) was added. Eighteen hours later, cells were harvested using a Filtermate Harvester (Packard) and counted for ^3H-TdR incorporation on Topcount (Packard). […]

Each structure is given as a SMILES string.

Consider `CC(C)C[C@H](NC(=O)N1CCOCC1)C(=O)N[C@H](/C=C/S(=O)(=O)c1ccccc1)CCc1ccccc1` [LHVS, 4-morpholinecarboxamide, N-[(1S)-3-methyl-1-[[[(1S,2E)-1-(2-phenylethyl)-3-(phenylsulfonyl)-2-propenyl]amino]carbonyl]butyl]-], for which the “T cell proliferation induced by house dust mite extracts (Der p, Der f)” value in assay [1] is “strongly inhibited”. Also, the “p10Ii fragment (block in the degradation of Ii)” value in assay [2] is recorded as “the p10Ii fragment was seen”. Moreover, in assay [3], the “T cell proliferation induced by ragweed extracts (short and giant)” value is “strongly inhibited”. In assay [4], the “T cell proliferative responses induced by ConA” value is recorded as “not affected”.

The values are drawn from patent US6369032B1, “Method for treating allergies” (Ortho-McNeil Pharmaceutical, Inc., priority 2000, dated 2002).
